A short description of data set [1]: hygroscopicity of the dihydrochloride salt (stated in words, no method). It is filed as physicochemical. The following applies: shows variable stoichiometry.
A short description of data set [2]: solubility of the free base (stated in words, no method). It is filed as physicochemical. Particulars: said to be therefore not readily bioavailable.
Data set [3] deals with T1, 5-HT1A receptor (Homo sapiens, UniProt P08908).
T1 sequence (P08908 1-422): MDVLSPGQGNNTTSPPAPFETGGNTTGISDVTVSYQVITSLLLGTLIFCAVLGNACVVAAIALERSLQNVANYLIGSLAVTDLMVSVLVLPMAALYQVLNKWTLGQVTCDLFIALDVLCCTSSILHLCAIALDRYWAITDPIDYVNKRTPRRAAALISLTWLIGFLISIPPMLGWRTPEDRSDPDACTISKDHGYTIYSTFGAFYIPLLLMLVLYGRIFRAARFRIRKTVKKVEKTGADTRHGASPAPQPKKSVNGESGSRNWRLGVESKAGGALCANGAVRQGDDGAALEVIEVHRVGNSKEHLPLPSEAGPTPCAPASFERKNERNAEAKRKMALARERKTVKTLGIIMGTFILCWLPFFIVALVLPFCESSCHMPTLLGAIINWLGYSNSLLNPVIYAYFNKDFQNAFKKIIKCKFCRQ
The data set is described as follows: antagonism of the 5-HT1A receptor (stated in words, no method). In kind it is biochemical.

For data set [4], the target named is 5-HT1B receptor (Homo sapiens, UniProt P28222). The data set is described as follows: antagonism of the 5-HT1B receptor, selectivity comparison (stated in words, no method). In kind it is biochemical. The following applies: better antagonist of 5-HT1A than of 5-HT1B.
Chain of 5-HT1B receptor (P28222 whole entry): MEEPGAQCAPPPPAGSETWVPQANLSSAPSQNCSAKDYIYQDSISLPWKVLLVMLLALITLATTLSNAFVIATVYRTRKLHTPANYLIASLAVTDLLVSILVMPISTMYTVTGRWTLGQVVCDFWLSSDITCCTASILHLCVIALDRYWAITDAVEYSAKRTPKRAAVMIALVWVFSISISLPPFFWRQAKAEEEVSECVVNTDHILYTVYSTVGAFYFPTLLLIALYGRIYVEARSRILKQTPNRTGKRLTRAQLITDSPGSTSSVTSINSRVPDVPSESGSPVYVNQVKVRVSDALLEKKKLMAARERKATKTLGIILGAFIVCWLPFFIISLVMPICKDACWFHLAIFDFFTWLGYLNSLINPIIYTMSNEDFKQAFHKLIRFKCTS

Where a name gives a salt, the structure may show the parent alone.

Take `Cc1ccc2c(N3CCN(CCc4c(C)ccc5c4CCc4c(C(N)=O)ncn4-5)CC3)cccc2n1` [dihydrochloride salt, 7-methyl-6-{2-[4-(2-methyl-5-quinolinyl)-1-piperazinyl]ethyl}-4,5-dihydroimidazo[1,5-a]quinoline-3-carboxamide]: the hygroscopicity entry in data set [1] was “hygroscopic”.

`Cc1ccc2c(N3CCN(CCc4c(C)ccc5c4CCc4c(C(N)=O)ncn4-5)CC3)cccc2n1` [free base, 7-methyl-6-{2-[4-(2-methyl-5-quinolinyl)-1-piperazinyl]ethyl}-4,5-dihydroimidazo[1,5-a]quinoline-3-carboxamide]: the solubility entry in data set [2] is “insoluble”.

For the compound `Cc1ccc2c(N3CCN(CCc4c(C)ccc5c4CCc4c(C(N)=O)ncn4-5)CC3)cccc2n1.O.O=C(O)/C=C\C(=O)O` [salt of the invention, 7-methyl-6-{2-[4-(2-methyl-5-quinolinyl)-1-piperazinyl]ethyl}-4,5-dihydroimidazo[1,5-a]quinoline-3-carboxamide monomaleate monohydrate], the “antagonist of the 5-HT1A receptor” value in data set [3] is “effective antagonist”. In data set [4], the “selectivity for the 5-HT1A receptor over the 5-HT1B receptor” value is recorded as “high selectivity”.

Values taken from US20100317672A1, “Monomaleate Monohydrate Salt of a 5HT1A Receptor Antagonist” (GLAXO GROUP LIMITED, priority 2008, published 2010).
